pEC50: −log10 of the molar value.
Experiments:
Format in all cases: cell-based, mouse
[1] = tested on: α7 integrin (LacZ reporter in α7βgal+/− myoblasts); assay: Myoblast α7+/LacZ integrin FDG assay (Burkin assay in myoblasts, 96-well); details: α7+/LacZ myoblasts, 96-well
[2] = tested on: α7 integrin (LacZ reporter in α7+/LacZ myotubes); assay: Myotube α7 integrin FDG assay (Burkin assay in myotubes, 96-well); details: myotubes
[3] = tested on: β-galactosidase in CMV-LacZ C2C12 myoblasts; assay: CMV-LacZ secondary screen in C2C12 myoblasts (β-Gal stabilizing assay); details: CMV-LacZ C2C12 myoblasts
In short: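 A secondary screen identifies compounds that stabilize β-gal independently of the native promoter, using CMV-LacZ C2C12 cells. Curves span 0.5–40 μM at six levels, in duplicate.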

[4] = tested on: β-galactosidase in CMV-LacZ C2C12 myotubes; assay: CMV-LacZ secondary screen in C2C12 myotubes (β-Gal stabilizing assay); details: C2C12 CMV-LacZ myotubes, fold relative to DMSO
In short: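 Dose-response runs at 0.5–40 μM (0.5, 1, 5, 10, 20, 40 μM; N=2 per point) used a clonal C2C12 line carrying CMV-LacZ. Cells were assayed as myoblasts or as differentiated myotubes, and β-galactosidase levels were read with the FDG fluorogenic substrate.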

| Structure (SMILES) | Burkin Assay in Myoblasts, signal relative to DMSO ([1]; 0.5 uM) | Burkin Assay in Myoblasts, signal relative to DMSO ([1]; 1 uM) | Burkin Assay in Myoblasts, signal relative to DMSO ([1]; 5 uM) | Burkin Assay in Myoblasts, signal relative to DMSO ([1]; 10 uM) | Burkin Assay in Myoblasts, signal relative to DMSO ([1]; 20 uM) | Burkin Assay in Myoblasts, signal relative to DMSO ([1]; 40 uM) | Burkin Assay in Myotubes, α7 integrin LacZ reporter signal relative to DMSO ([2]; 0.5 uM) | Burkin Assay in Myotubes, α7 integrin LacZ reporter signal relative to DMSO ([2]; 1 uM) | Burkin Assay in Myotubes, α7 integrin LacZ reporter signal relative to DMSO ([2]; 5 uM) | Burkin Assay in Myotubes, α7 integrin LacZ reporter signal relative to DMSO ([2]; 10 uM) | Burkin Assay in Myotubes, α7 integrin LacZ reporter signal relative to DMSO ([2]; 20 uM) | Burkin Assay in Myotubes, α7 integrin LacZ reporter signal relative to DMSO ([2]; 40 uM) | CMV-LACZ in Myoblasts (β-galactosidase activity relative to DMSO) ([3]; 0.5 uM) | CMV-LACZ in Myoblasts (β-galactosidase activity relative to DMSO) ([3]; 1 uM) | CMV-LACZ in Myoblasts (β-galactosidase activity relative to DMSO) ([3]; 5 uM) | CMV-LACZ in Myoblasts (β-galactosidase activity relative to DMSO) ([3]; 10 uM) | CMV-LACZ in Myoblasts (β-galactosidase activity relative to DMSO) ([3]; 20 uM) | CMV-LACZ in Myoblasts (β-galactosidase activity relative to DMSO) ([3]; 40 uM) | CMV-LACZ in Myotubes, signal relative to DMSO ([4]; 0.5 uM) | CMV-LACZ in Myotubes, signal relative to DMSO ([4]; 1 uM) | also measured |
| --- | --- | --- | --- | --- | --- | --- | --- | --- | --- | --- | --- | --- | --- | --- | --- | --- | --- | --- | --- | --- | --- |
| Cc1ccc2c(c1)/C(=C/c1ccco1)C(=O)N2 [MLS000682750-01] | 1.203 | 1.02 | 1.229 | 1.076 | 1.124 | 1.103 | 0.9957 | 0.9939 | 1.073 | 0.8839 | 1.002 | 0.7064 | 0.9679 | 1.0467 | 0.8717 | 0.9934 | 1.1433 | 1.0404 | 1.0248 | 0.9638 | CMV-LACZ in Myotubes, signal relative to DMSO ([4]; 5 uM): 1.1285; CMV-LACZ in Myotubes, signal relative to DMSO ([4]; 10 uM): 1.0939; CMV-LACZ in Myotubes, signal relative to DMSO ([4]; 20 uM): 1.1189; CMV-LACZ in Myotubes, signal relative to DMSO ([4]; 40 uM): 1.0579 |
| Nc1ncnc(N2CCc3ccccc32)c1[N+](=O)[O-] [MLS000683232-01] | 1.234 | 1.199 | 1.6445 | 1.778 | 1.821 | 1.654 | 1.136 | 1.2778 | 1.272 | 1.448 | 1.4149 | 1.32 | 0.8043 | 0.7131 | 0.5638 | 0.5224 | 0.6119 | 0.8237 | 0.8200 | 0.7752 | MT FOLD INCREASE ([2]; maximum response): 1.7 fold; pEC50 ([2]; nonlinear regression of dose-response curves, read-out: EC50 α7+/LacZ MT): 5.28; CMV-LACZ in Myotubes, signal relative to DMSO ([4]; 5 uM): 0.8743; CMV-LACZ in Myotubes, signal relative to DMSO ([4]; 10 uM): 1.0086; CMV-LACZ in Myotubes, signal relative to DMSO ([4]; 20 uM): 0.8835; CMV-LACZ in Myotubes, signal relative to DMSO ([4]; 40 uM): 0.8365 |
| Cc1cc(OCC(=O)NC(C)C)ccc1Cl [MLS000684034-01] | 0.999 | 1.02 | 0.7872 | 0.6258 | 0.4225 | 0.3085 | 0.9731 | 0.9536 | 0.8383 | 0.8076 | 0.7403 | 0.7385 | 1.2525 | 1.1492 | 1.2045 | 1.0568 | 0.5374 | 0.3100 | 1.0962 | 0.9810 | CMV-LACZ in Myotubes, signal relative to DMSO ([4]; 5 uM): 1.1407; CMV-LACZ in Myotubes, signal relative to DMSO ([4]; 10 uM): 1.1903; CMV-LACZ in Myotubes, signal relative to DMSO ([4]; 20 uM): 1.2347; CMV-LACZ in Myotubes, signal relative to DMSO ([4]; 40 uM): 1.0105 |
| CCc1nc2ccccc2c(C(=O)NCc2ccccc2)c1C [MLS000688267-01] | 1.092 | 1.104 | 1.358 | 0.9133 | 1.0466 | 1.107 | 0.9011 | 0.8373 | 1.132 | 1.101 | 0.8808 | 1.131 | 1.0950 | 1.1579 | 0.9129 | 0.8935 | 1.1407 | 1.0774 | 0.8648 | 1.1333 | CMV-LACZ in Myotubes, signal relative to DMSO ([4]; 5 uM): 0.9634; CMV-LACZ in Myotubes, signal relative to DMSO ([4]; 10 uM): 1.2248; CMV-LACZ in Myotubes, signal relative to DMSO ([4]; 20 uM): 0.9505; CMV-LACZ in Myotubes, signal relative to DMSO ([4]; 40 uM): 1.1505 |
| N#C/C(=C/c1ccc(N2CCOCC2)o1)C(=O)Nc1ccccc1 [MLS000689218-01] | 1.068 | 1.171 | 1.132 | 1.051 | 1.07 | 1.037 | 0.9663 | 1.083 | 0.97 | 0.9829 | 1.008 | 0.9676 | 1.1977 | 1.2273 | 0.8689 | 1.0813 | 1.2835 | 1.6337 | 0.9657 | 0.9514 | CMV-LACZ in Myotubes, signal relative to DMSO ([4]; 5 uM): 1.3684; CMV-LACZ in Myotubes, signal relative to DMSO ([4]; 10 uM): 1.2135; CMV-LACZ in Myotubes, signal relative to DMSO ([4]; 20 uM): 1.4900; CMV-LACZ in Myotubes, signal relative to DMSO ([4]; 40 uM): 1.7990 |
| O=C(Cn1nc(-c2ccc(Cl)cc2)ccc1=O)N1CCC2(CC1)OCCO2 [MLS000689492-01] | 1.073 | 0.908 | 0.94 | 0.9431 | 1.083 | 0.9652 | 1.156 | 1.138 | 0.9311 | 0.9292 | 0.8836 | 0.7544 | 0.9363 | 1.0252 | 1.0863 | 0.8653 | 1.0141 | 1.0026 | 1.0853 | 1.2400 | CMV-LACZ in Myotubes, signal relative to DMSO ([4]; 5 uM): 1.0504; CMV-LACZ in Myotubes, signal relative to DMSO ([4]; 10 uM): 1.0940; CMV-LACZ in Myotubes, signal relative to DMSO ([4]; 20 uM): 1.0444; CMV-LACZ in Myotubes, signal relative to DMSO ([4]; 40 uM): 0.9267 |
